The record followed here is ChEMBL document CHEMBL1201862, “PubChem BioAssay data set” (2004).

In assay [1] the target is T1, Sentrin-specific protease 7 (Homo sapiens, UniProt Q9BQF6).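 Further: Luminescence-based dose-response confirmation of ultra-high-throughput screening hits, measuring inhibition of SENP7.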
T1 sequence (Q9BQF6 whole entry): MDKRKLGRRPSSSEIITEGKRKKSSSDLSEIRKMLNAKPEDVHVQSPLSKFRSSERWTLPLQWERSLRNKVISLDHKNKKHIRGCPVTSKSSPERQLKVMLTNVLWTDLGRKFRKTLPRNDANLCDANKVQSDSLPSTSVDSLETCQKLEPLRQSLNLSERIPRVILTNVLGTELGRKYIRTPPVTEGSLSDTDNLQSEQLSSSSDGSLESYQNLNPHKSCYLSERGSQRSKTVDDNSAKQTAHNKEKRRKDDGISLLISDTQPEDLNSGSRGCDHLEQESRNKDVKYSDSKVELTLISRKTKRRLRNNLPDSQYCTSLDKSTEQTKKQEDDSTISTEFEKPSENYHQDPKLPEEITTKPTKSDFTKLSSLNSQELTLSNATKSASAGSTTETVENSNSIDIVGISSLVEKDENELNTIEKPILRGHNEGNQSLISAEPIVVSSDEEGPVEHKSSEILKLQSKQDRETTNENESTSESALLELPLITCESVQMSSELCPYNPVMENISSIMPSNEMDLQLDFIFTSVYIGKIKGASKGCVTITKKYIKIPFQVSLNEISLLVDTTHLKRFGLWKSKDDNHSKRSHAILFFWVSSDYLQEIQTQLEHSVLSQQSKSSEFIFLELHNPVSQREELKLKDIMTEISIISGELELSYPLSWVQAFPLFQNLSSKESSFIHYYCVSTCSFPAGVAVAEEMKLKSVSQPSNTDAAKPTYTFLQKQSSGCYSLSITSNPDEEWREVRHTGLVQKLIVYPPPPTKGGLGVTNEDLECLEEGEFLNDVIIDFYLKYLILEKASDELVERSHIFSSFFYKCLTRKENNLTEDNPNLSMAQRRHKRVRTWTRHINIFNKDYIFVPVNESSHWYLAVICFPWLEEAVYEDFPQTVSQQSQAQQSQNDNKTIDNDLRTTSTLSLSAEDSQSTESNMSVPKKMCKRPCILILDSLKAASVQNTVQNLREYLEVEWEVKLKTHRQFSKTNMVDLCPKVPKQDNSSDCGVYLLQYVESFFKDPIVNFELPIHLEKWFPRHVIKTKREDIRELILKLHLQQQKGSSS
It is filed as functional.

A further assay concerns the target T2, Protein skinhead-1 (Caenorhabditis elegans, UniProt P34707).
T2 sequence (P34707 whole entry): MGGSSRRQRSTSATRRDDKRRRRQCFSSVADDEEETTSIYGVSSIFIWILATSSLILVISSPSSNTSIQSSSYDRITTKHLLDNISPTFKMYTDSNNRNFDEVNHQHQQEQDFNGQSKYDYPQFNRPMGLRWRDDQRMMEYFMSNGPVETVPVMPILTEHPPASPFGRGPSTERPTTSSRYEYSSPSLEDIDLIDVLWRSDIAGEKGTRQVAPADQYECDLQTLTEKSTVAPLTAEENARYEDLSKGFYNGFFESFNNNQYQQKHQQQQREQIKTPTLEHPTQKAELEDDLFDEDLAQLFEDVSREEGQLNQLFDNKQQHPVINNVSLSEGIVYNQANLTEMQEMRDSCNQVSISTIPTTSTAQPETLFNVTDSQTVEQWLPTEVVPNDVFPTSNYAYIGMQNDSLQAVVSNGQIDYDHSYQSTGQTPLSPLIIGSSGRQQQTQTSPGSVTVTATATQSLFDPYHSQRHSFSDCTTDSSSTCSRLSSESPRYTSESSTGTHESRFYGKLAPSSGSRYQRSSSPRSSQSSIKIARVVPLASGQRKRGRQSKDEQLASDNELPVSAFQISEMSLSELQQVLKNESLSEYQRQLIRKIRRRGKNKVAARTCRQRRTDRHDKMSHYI
It counts as functional.

Another assay deals with T3, Caspase-3 (Homo sapiens, UniProt P42574).
T3 sequence (P42574 whole entry): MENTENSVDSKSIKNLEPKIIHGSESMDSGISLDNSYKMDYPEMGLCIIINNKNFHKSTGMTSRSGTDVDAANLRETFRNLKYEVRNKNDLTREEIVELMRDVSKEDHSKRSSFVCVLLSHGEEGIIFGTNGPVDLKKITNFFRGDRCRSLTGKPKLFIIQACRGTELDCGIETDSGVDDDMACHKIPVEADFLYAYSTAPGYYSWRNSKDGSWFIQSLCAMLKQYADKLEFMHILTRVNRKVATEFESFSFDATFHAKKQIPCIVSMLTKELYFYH
It counts as functional.

The target of assay [2] is T4, Sentrin-specific protease 6 (Homo sapiens, UniProt Q9GZR1).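 Further: Luminescence-based dose-response confirmatory assay of SENP6 inhibition, following up an ultra-high-throughput screen.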
T4 sequence (Q9GZR1 whole entry): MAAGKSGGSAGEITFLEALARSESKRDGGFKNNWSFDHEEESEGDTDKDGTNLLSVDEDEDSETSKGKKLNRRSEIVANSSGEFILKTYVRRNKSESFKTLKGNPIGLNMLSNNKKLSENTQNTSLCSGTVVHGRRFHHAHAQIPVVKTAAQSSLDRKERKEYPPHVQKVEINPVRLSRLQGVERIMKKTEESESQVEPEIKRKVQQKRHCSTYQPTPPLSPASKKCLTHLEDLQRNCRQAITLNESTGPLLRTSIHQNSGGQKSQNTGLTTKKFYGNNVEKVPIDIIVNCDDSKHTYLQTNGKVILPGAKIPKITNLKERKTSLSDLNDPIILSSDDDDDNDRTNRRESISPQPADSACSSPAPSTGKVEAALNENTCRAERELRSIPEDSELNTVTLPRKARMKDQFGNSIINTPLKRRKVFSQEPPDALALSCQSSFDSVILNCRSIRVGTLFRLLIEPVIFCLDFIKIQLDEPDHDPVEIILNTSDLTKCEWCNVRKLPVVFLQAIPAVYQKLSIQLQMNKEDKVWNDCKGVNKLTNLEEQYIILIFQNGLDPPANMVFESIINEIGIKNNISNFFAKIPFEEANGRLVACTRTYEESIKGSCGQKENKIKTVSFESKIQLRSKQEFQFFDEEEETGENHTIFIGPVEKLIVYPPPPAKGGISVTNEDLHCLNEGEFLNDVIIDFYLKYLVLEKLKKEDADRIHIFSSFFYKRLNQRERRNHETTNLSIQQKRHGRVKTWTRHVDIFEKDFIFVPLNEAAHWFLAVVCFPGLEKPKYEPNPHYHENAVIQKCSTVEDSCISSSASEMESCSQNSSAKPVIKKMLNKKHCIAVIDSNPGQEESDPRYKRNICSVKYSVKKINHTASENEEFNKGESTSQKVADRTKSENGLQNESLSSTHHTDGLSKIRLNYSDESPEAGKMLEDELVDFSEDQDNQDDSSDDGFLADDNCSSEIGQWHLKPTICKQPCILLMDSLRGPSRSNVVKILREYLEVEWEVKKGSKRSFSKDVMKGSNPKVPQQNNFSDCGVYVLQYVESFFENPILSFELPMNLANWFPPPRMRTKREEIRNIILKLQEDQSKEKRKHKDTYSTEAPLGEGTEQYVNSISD
It counts as functional.

Assay [3] addresses T5, Sentrin-specific protease 8 (Homo sapiens, UniProt Q96LD8).
T5 sequence (Q96LD8 whole entry): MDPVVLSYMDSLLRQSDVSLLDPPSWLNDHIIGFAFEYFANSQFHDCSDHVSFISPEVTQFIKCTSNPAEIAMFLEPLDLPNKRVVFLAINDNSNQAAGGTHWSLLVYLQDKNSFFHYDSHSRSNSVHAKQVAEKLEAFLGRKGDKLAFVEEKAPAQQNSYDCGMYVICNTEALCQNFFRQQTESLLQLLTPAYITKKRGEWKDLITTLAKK
It is filed as functional.

The subject of a further assay is H4. As to the kind of experiment: Luminescence Cell-Based Dose Response HTS to Identify Activators of 5'UTR Stem-Loop Driven Prion Protein mRNA Translation in H4 Neuroglioblastoma Cells. [Related pubchem assays: 1829 (Project Summary), 1814 (Primary HTS)]. It counts as functional. Particulars: Homo sapiens.
Assay [4] is described as follows: Luminescence Cell-Based Dose Confirmation HTS to Identify Activators of 5'UTR Stem-Loop Driven Alpha-Synuclein mRNA Translation in H4 Neuroglioblastoma Cells. [Related pubchem assays: 1829 (Project Summary), 1814 (Primary HTS)]. It counts as functional.
The nature of assay [5]: Luminescence Cell-Based Dose Response HTS to Identify Activators of Luciferase Translation or Activity in H4 […] Cells. [Related pubchem assays: 1829 (Project Summary), 1814 (Primary HTS)]. It is filed as functional.
The target of assay [6] is T6, Adenosylmethionine-8-amino-7-oxononanoate aminotransferase (Mycobacterium tuberculosis, UniProt P9WQ81).
T6 sequence (P9WQ81 whole entry): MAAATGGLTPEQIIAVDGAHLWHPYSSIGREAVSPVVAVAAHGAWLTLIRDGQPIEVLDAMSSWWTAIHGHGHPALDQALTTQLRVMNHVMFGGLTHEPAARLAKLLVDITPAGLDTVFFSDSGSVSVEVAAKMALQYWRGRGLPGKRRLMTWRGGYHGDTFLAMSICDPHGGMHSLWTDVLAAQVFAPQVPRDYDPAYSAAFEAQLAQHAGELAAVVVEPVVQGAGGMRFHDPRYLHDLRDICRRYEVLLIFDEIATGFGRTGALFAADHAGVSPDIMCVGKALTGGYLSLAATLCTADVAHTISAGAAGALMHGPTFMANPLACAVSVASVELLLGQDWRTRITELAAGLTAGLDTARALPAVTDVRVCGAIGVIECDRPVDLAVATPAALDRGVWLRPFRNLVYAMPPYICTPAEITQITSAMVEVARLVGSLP
As to the kind of experiment: Mycobacterium tuberculosis BioA enzyme inhibitor Measured in Biochemical System Using Plate Reader - 2163-02_Inhibitor_Dose_CherryPick_Activity. It is filed as functional, Mycobacterium tuberculosis UT205.

A short description of assay [7]: cytotoxicity toward NIH3T3 fibroblasts, dose response, counter-screen, cell-based, ATP luminescence, mouse fibroblasts (AID 2010).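 Further: cells exposed to compound for about 90 hours before reading.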 It is filed as functional. For orientation: A counterscreen serves to expose hits that act by an unwanted route or on another target.
Assay [8] can be described thus: inhibitors of intracellular T. cruzi replication, confirmation, NIH3T3 host cells, beta-gal luminescence (AID 2044).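 Further: intracellular parasites grown in NIH/3T3 mouse fibroblasts as host cells; luminescent beta-galactosidase reporter signal from transgenic T. cruzi replicating inside host cells; inhibitors lower the luminescence signal.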 It counts as functional, cell-based.
In assay [9] the target is T7, Apoptotic protease-activating factor 1 (Homo sapiens, UniProt O14727).
T7 sequence (O14727 whole entry): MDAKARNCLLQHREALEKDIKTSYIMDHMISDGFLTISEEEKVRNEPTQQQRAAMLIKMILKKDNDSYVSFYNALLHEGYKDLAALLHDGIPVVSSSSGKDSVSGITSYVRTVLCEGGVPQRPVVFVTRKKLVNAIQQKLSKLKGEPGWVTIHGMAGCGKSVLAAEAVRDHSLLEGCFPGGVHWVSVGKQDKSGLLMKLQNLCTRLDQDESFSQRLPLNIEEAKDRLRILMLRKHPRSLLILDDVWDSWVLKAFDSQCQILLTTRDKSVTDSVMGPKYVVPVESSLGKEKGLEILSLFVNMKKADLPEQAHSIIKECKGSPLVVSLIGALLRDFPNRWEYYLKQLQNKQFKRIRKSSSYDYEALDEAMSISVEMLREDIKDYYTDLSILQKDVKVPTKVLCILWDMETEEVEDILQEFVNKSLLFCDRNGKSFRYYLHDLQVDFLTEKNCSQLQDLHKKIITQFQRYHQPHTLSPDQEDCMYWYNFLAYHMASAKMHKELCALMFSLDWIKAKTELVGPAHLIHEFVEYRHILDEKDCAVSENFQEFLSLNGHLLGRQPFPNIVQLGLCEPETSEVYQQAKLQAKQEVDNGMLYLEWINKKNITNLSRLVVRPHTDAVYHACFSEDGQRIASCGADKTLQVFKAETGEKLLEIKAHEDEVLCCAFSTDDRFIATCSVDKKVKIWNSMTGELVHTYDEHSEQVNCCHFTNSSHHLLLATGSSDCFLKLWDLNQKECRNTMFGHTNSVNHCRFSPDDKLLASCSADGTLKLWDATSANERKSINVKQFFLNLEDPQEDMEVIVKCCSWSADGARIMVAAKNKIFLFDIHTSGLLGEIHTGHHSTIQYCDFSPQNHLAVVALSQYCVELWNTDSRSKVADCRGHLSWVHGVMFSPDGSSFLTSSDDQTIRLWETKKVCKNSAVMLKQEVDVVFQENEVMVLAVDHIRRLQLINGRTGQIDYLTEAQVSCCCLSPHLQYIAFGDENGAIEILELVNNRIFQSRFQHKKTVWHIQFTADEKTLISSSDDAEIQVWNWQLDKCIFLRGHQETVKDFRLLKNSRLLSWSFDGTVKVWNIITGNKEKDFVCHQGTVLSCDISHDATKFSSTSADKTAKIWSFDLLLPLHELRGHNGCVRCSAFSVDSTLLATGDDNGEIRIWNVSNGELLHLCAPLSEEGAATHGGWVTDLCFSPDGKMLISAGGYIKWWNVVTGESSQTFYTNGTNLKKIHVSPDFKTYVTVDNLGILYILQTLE
It is filed as functional.

Activity calls are given as the source filed them.

Consider `c1ccc(CCNc2ncnc3c2cnn3-c2ccccc2)cc1`, for which the IC50 was 7.14 µM (active) in assay [1]; > 100 µM (inactive) at Protein skinhead-1; 22.5 µM (active) at Caspase-3; 19.6 µM (active) in assay [2]; 22.9 µM (active) in assay [3].
`O=C(O)c1ccc(COc2ccccc2[N+](=O)[O-])o1`: the IC50 in assay [1] was 10.5 µM (active); on Caspase-3, > 100 µM (inactive); in assay [2], 35.6 µM (active); in assay [3], 31.3 µM (active).
Turning to `COc1ccc(-c2noc(Cc3cccs3)n2)cc1`, the half-maximal effective concentration (EC50) with H4 was > 120 µM (not active); in assay [4], 24.9 µM (active); in assay [5], 501 nM (active). For the same compound, the IC50 in assay [1] was 9.93 µM (active); at Caspase-3, 27.3 µM (active); in [2], 31.8 µM (active); in [3] it was 25 µM (active).
Turning to `O=C(Nc1ccc(N2CCOCC2)c(Cl)c1)c1cccnc1`, in assay [6], the AC50 is 13.3 µM (active).
`COc1ccc(C/N=C/c2[nH]c3ccc(Br)c(Cl)c3c2O)cc1`: the EC50 was > 60 µM (not active) in assay [7] and 1.31 µM (active) in [8]. The IC50 in assay [9] was 59.2 µM (active).
As to `CN(Cc1ccccc1)C(=O)CCS(=O)(=O)c1ccc2c(c1)NC(=O)CS2`, the AC50 in [6] is 3.51 µM (active).
Same read-out and setting: next, `O=C(C[C@@H]1C[C@@H]2c3cc(NC(=O)c4cccnc4)ccc3O[C@@H]2[C@@H](CO)O1)NCc1cccnc1`: 10.7 µM (active).

A word on the IC50: it is the point on the concentration scale where inhibition reaches its midpoint. The EC50 is the midpoint of the concentration-response curve. The term AC50 denotes the midpoint of the concentration-response curve, whichever way the signal moves.
